Assay results taken from ChEMBL document CHEMBL1131970, “The design of (-)-(S)-2-nitrooxyethyl 1,4-dihydro-2,6-dimethyl-3-nitro-4-(2-trifluoromethylphenyl) pyridine-5-carboxylate: a cardioselective positive inotropic derivative of Bay K 8644” (Bioorg Med Chem Lett, 1999).

Columns and labels:
Format in all cases: functional
[1] = organism: Cavia porcellus; experiment: In vitro for cardiac calcium channel (CC) agonist activity; Active; conditions: read-out: ED50 (the source's name)
[2] = organism: Cavia porcellus; experiment: In vitro for smooth muscle calcium channel antagonist activity; conditions: Muscle tissue
[3] = organism: Cavia porcellus; experiment: In vitro cardiac calcium channel (CC) agonist activity; conditions: read-out: ED50 (the source's name)
[4] = organism: Cavia porcellus; experiment: In vitro release of nitric oxide by nitrite quantitation in the presence of N-acetyl-cysteamine by Griess reaction
[5] = organism: Cavia porcellus; experiment: In vitro release of nitric oxide by nitrite quantitation in the absence of N-acetyl-cysteamine by Griess reaction

| SMILES | EC50 [1] [µM] | IC50 [2] [µM] | EC50 [3] [µM] | Release [4] [%] | Release [5] [%] |
| --- | --- | --- | --- | --- | --- |
| CO/C(O)=C1\C(C)=NC(C)=C([N+](=O)[O-])[C@H]1c1ccccc1C(F)(F)F | 0.92 | 16 |  |  |  |
| CC1=NC(C)=C([N+](=O)[O-])[C@@H](c2ccccc2C(F)(F)F)/C1=C(\O)OCCO[N+](=O)[O-] |  | 16 | 0.92 |  |  |
| CC1=NC(C)=C([N+](=O)[O-])[C@H](c2ccccc2C(F)(F)F)/C1=C(\O)OCCO[N+](=O)[O-] |  | 0.079 | 16 |  |  |
| CC1=NC(C)=C([N+](=O)[O-])C(c2ccccc2C(F)(F)F)/C1=C(\O)OCCO[N+](=O)[O-] (stereo not given) |  |  |  | 2.7 | 1.09 |
| O=[N+]([O-])OCC(CO[N+](=O)[O-])O[N+](=O)[O-] [NITROGLYCERIN] |  |  |  | 5.3 | 0.18 |
